Laboratory results reported in patent US8933016B2, “Metallodrugs having improved pharmacological properties and methods of manufacture and use thereof” (priority 2012, dated 2015).
Converted amounts (≈) assume the structure as drawn. Ends that are not written are not given here. Peptide text beside a SMILES is read from it. * marks the point of attachment. X4 = COCCOCCOCCOCCOCCOCCOCCOCCOCCOCCOCCOCCOCCOCCOCCOCCOCCOCCOCCOCCOCCOCCOCCOCCOCCOCCOCCOCCOCCOCCOCCOCCOCCOCCOCCOCCOCCOCCOCCOCCOCCOCCOCCOCCOCCOCCOCCOCCNC(=O)CCN1C(=O)CC(*)C1=O; X3 = COCCOCCOCCOCCOCCOCCOCCOCCOCCOCCOCCOCCOCCOCCOCCOCCOCCOCCOCCOCCOCCOCCOCCOCCOCCOCCOCCOCCOCCOCCOCCOCCOCCOCCOCCOCCNC(=O)CCN1C(=O)CC(*)C1=O; X2 = COCCOCCOCCOCCOCCOCCOCCOCCOCCOCCOCCOCCOCCOCCOCCOCCOCCOCCOCCOCCOCCOCCOCCOCCNC(=O)CCN1C(=O)CC(*)C1=O; X1 = COCCOCCOCCOCCOCCOCCOCCOCCOCCOCCOCCOCCNC(=O)CCN1C(=O)CC(*)C1=O

What was measured:
[1] = tested on: pUC19 plasmid DNA; experiment: Plasmid DNA cleavage by reactive oxygen species; type: biochemical; conditions: 10 μM base pair pUC19, 100 nM M-chelate, 1 mM H2O2, 1 mM ascorbate, pH 7.4
[2] = tested on: E. coli O157:H7, BAA-1883 (Ec F); conditions: O157:H7
[3] = tested on: K. pneumonia, 700603 (Kp); type: cell-based; conditions: Mueller Hinton Broth
[4] = tested on: E. coli, 25922 (Ec); conditions: 25922 (Ec)
[5] = tested on: A. baumanii, BAA-747 (Ab); conditions: BAA-747
[6] = tested on: S. pneumoniae, 49619 (Sp); conditions: 49619 (Sp)
[7] = Cytotoxicity toward human Huh7 liver cells
[8] = tested on: Gram+ & Gram−, Fungi, Virus, Parasites, Protozoan, HIV, Cancer cells; conditions: Antimicrobial Peptide Database; cited from earlier work

O=C([O-])CN1CCN(CC(=O)O)CCN(CC(=O)[O-])CCN(CC(=O)O)CC1.[Cu+2] [Cu-DOTA]
Linear (μM bp) [1]: 0.09 μM bp | Nicked (μM bp) [1]: 1.31 μM bp | Supercoiled (μM bp) [1]: 8.59 μM bp

O=C([O-])CN(CCN(CC(=O)[O-])CC(=O)[O-])CC(=O)[O-].[Fe+3] [Fe-EDTA]
Linear (μM bp) [1]: 0.30 μM bp | Nicked (μM bp) [1]: 2.44 μM bp | Supercoiled (μM bp) [1]: 7.26 μM bp

NCC(=O)NCC(=O)N[C@@H](Cc1c[nH]cn1)C(=O)N1CCN(c2cc3c(cc2F)c(=O)c(C(=O)O)cn3C2CC2)CC1 [GGH CIPRO]
MIC Ec F [2]: 8 µM (≈ 4.66 µg/mL)

CC(C)C[C@H](NC(=O)[C@H](CCCNC(=N)N)NC(=O)[C@H](CCC(N)=O)NC(=O)[C@H](CCCCN)NC(=O)[C@@H](NC(=O)[C@H](CCCCN)NC(=O)[C@H](CCCNC(=N)N)NC(=O)[C@H](CC(C)C)NC(=O)[C@H](CC(N)=O)NC(=O)[C@H](Cc1ccccc1)NC(=O)[C@H](Cc1ccccc1)NC(=O)[C@H](CC(C)C)NC(=O)[C@H](CCCCN)NC(=O)[C@H](CCCNC(=N)N)NC(=O)[C@H](CCC(N)=O)NC(=O)CNC(=O)[C@H](Cc1c[nH]cn1)NC(=O)CNC(=O)CN)[C@@H](C)O)C(=O)NCC(=O)N[C@@H](Cc1c[nH]c2ccccc12)C(=O)N[C@@H](Cc1ccccc1)C(=O)N[C@@H](CC(N)=O)C(=O)N[C@@H](CCC(N)=O)C(=O)N[C@@H](CS)C(=O)O [PEP 192]
MIC Kp [3]: 5.3 µM (≈ 16 µg/mL)

CC[C@H](C)[C@H](NC(=O)[C@H](CCCCN)NC(=O)[C@H](Cc1c[nH]c2ccccc12)NC(=O)[C@H](CCCNC(=N)N)NC(=O)[C@H](CCCNC(=N)N)NC(=O)[C@H](Cc1c[nH]cn1)NC(=O)CNC(=O)CN)C(=O)N[C@H](C(=O)N[C@H](C(=O)N[C@H](C(=O)N[C@@H](CCCNC(=N)N)C(=O)N[C@@H](Cc1c[nH]c2ccccc12)C(=O)N[C@@H](CCCNC(=N)N)C(=O)N[C@@H](CCCNC(=N)N)C(=O)NCC(=O)NCC(=O)N[C@@H](CSC1CC(=O)N(CCC(=O)NCCOCCOCCOCCOCCOCCOCCOCCOCCOCCOCCOCCOC)C1=O)C(=O)O)[C@@H](C)CC)C(C)C)C(C)C (some centres unmarked) [PEP 314 PEG 12] (H-GGHRRWKIVVIRWRRGGC(X1)-OH; C-terminus assumed)
MIC Ec [4]: 11 µM (≈ 31.9 µg/mL) | MIC Ec F [2]: 11 µM (≈ 31.9 µg/mL) | MIC Ab [5]: 2.7 µM (≈ 7.84 µg/mL) | MIC Sp [6]: 11 µM (≈ 31.9 µg/mL)

CC[C@H](C)[C@H](NC(=O)[C@H](CCCCN)NC(=O)[C@H](Cc1c[nH]c2ccccc12)NC(=O)[C@H](CCCNC(=N)N)NC(=O)[C@H](CCCNC(=N)N)NC(=O)[C@H](Cc1c[nH]cn1)NC(=O)CNC(=O)CN)C(=O)N[C@H](C(=O)N[C@H](C(=O)N[C@H](C(=O)N[C@@H](CCCNC(=N)N)C(=O)N[C@@H](Cc1c[nH]c2ccccc12)C(=O)N[C@@H](CCCNC(=N)N)C(=O)N[C@@H](CCCNC(=N)N)C(=O)NCC(=O)NCC(=O)N[C@@H](CSC1CC(=O)N(CCC(=O)NCCOCCOCCOCCOCCOCCOCCOCCOCCOCCOCCOCCOCCOCCOCCOCCOCCOCCOCCOCCOCCOCCOCCOCCOCCOCCOCCOCCOCCOCCOCCOCCOCCOCCOCCOCCOC)C1=O)C(=O)O)[C@@H](C)CC)C(C)C)C(C)C (some centres unmarked) [PEP 314 PEG 36] (H-GGHRRWKIVVIRWRRGGC(X3)-OH; C-terminus assumed)
MIC Sp [6]: 8.1 µM (≈ 32.1 µg/mL) | IC50 [7]: > 200 µM

CC[C@H](C)[C@H](NC(=O)[C@H](CCCCN)NC(=O)[C@H](Cc1c[nH]c2ccccc12)NC(=O)[C@H](CCCNC(=N)N)NC(=O)[C@H](CCCNC(=N)N)NC(=O)[C@H](Cc1c[nH]cn1)NC(=O)CNC(=O)CN)C(=O)N[C@H](C(=O)N[C@H](C(=O)N[C@H](C(=O)N[C@@H](CCCNC(=N)N)C(=O)N[C@@H](Cc1c[nH]c2ccccc12)C(=O)N[C@@H](CCCNC(=N)N)C(=O)N[C@@H](CCCNC(=N)N)C(=O)NCC(=O)NCC(=O)N[C@@H](CSC1CC(=O)N(CCC(=O)NCCOCCOCCOCCOCCOCCOCCOCCOCCOCCOCCOCCOCCOCCOCCOCCOCCOCCOCCOCCOCCOCCOCCOCCOCCOCCOCCOCCOCCOCCOCCOCCOCCOCCOCCOCCOCCOCCOCCOCCOCCOCCOCCOCCOCCOCCOCCOCCOC)C1=O)C(=O)O)[C@@H](C)CC)C(C)C)C(C)C (some centres unmarked) [PEP 314 PEG 48] (H-GGHRRWKIVVIRWRRGGC(X4)-OH; C-terminus assumed)
MIC Sp [6]: 7.1 µM (≈ 31.9 µg/mL) | IC50 [7]: > 200 µM

CC[C@H](C)[C@H](NC(=O)[C@H](Cc1c[nH]cn1)NC(=O)CNC(=O)CN)C(=O)N[C@@H](CCCNC(=N)N)C(=O)N[C@@H](CCCNC(=N)N)C(=O)N[C@H](C(=O)N[C@H](C(=O)N[C@@H](CCCNC(=N)N)C(=O)N[C@@H](CCCCN)C(=O)N[C@H](C(=O)N[C@H](C(=O)N[C@@H](Cc1c[nH]cn1)C(=O)N[C@H](C(=O)N[C@H](C(=O)N[C@@H](CCCCN)C(=O)N[C@@H](CCCCN)C(=O)NCC(=O)NCC(=O)N[C@@H](CSC1CC(=O)N(CCC(=O)NCCOCCOCCOCCOCCOCCOCCOCCOCCOCCOCCOCCOCCOCCOCCOCCOCCOCCOCCOCCOCCOCCOCCOCCOC)C1=O)C(=O)O)[C@@H](C)CC)[C@@H](C)CC)[C@@H](C)CC)[C@@H](C)CC)[C@@H](C)CC)[C@@H](C)CC (some centres unmarked) [PEP 318 PEG 24] (H-GGHIRRIIRKIIHIIKKGGC(X2)-OH; C-terminus assumed)
MIC Ec [4]: 9.1 µM (≈ 31.9 µg/mL) | MIC Ec F [2]: 18.2 µM (≈ 63.9 µg/mL) | MIC Ab [5]: 9.1 µM (≈ 31.9 µg/mL) | IC50 [7]: > 200 µM

CC[C@H](C)[C@H](NC(=O)[C@H](Cc1c[nH]cn1)NC(=O)CNC(=O)CN)C(=O)N[C@@H](CCCNC(=N)N)C(=O)N[C@@H](CCCNC(=N)N)C(=O)N[C@H](C(=O)N[C@H](C(=O)N[C@@H](CCCNC(=N)N)C(=O)N[C@@H](CCCCN)C(=O)N[C@H](C(=O)N[C@H](C(=O)N[C@@H](Cc1c[nH]cn1)C(=O)N[C@H](C(=O)N[C@H](C(=O)N[C@@H](CCCCN)C(=O)N[C@@H](CCCCN)C(=O)NCC(=O)NCC(=O)N[C@@H](CSC1CC(=O)N(CCC(=O)NCCOCCOCCOCCOCCOCCOCCOCCOCCOCCOCCOCCOCCOCCOCCOCCOCCOCCOCCOCCOCCOCCOCCOCCOCCOCCOCCOCCOCCOCCOCCOCCOCCOCCOCCOCCOC)C1=O)C(=O)O)[C@@H](C)CC)[C@@H](C)CC)[C@@H](C)CC)[C@@H](C)CC)[C@@H](C)CC)[C@@H](C)CC (some centres unmarked) [PEP 318 PEG 36] (H-GGHIRRIIRKIIHIIKKGGC(X3)-OH; C-terminus assumed)
MIC Ec [4]: 15.8 µM (≈ 63.8 µg/mL) | MIC Ec F [2]: 15.8 µM (≈ 63.8 µg/mL) | MIC Ab [5]: 7.9 µM (≈ 31.9 µg/mL) | IC50 [7]: > 200 µM

CC[C@H](C)[C@H](NC(=O)[C@H](Cc1c[nH]cn1)NC(=O)CNC(=O)CN)C(=O)N[C@@H](CCCNC(=N)N)C(=O)N[C@@H](CCCNC(=N)N)C(=O)N[C@H](C(=O)N[C@H](C(=O)N[C@@H](CCCNC(=N)N)C(=O)N[C@@H](CCCCN)C(=O)N[C@H](C(=O)N[C@H](C(=O)N[C@@H](Cc1c[nH]cn1)C(=O)N[C@H](C(=O)N[C@H](C(=O)N[C@@H](CCCCN)C(=O)N[C@@H](CCCCN)C(=O)NCC(=O)NCC(=O)N[C@@H](CSC1CC(=O)N(CCC(=O)NCCOCCOCCOCCOCCOCCOCCOCCOCCOCCOCCOCCOCCOCCOCCOCCOCCOCCOCCOCCOCCOCCOCCOCCOCCOCCOCCOCCOCCOCCOCCOCCOCCOCCOCCOCCOCCOCCOCCOCCOCCOCCOCCOCCOCCOCCOCCOCCOC)C1=O)C(=O)O)[C@@H](C)CC)[C@@H](C)CC)[C@@H](C)CC)[C@@H](C)CC)[C@@H](C)CC)[C@@H](C)CC (some centres unmarked) [PEP 318 PEG 48] (H-GGHIRRIIRKIIHIIKKGGC(X4)-OH; C-terminus assumed)
MIC Ab [5]: 13.9 µM (≈ 63.5 µg/mL) | IC50 [7]: > 200 µM

CC/C(=C(\c1ccccc1)c1ccc(OCCN(C)C)cc1)c1ccccc1 [Tamoxifen, reference compound]
IC50 [7]: 42 µM

Cu-GGHC-Amik fr3: copper complex of GGHC-Amikacin, fraction 3 (also: copper complex, amikacin conjugate, site not given here)
Linear (μM bp) [1]: 0.04 μM bp | Nicked (μM bp) [1]: 6.46 μM bp | Supercoiled (μM bp) [1]: 3.50 μM bp

FVQWFSKFLGRILGGC [SEQ ID NO: 63]
activity against organisms [8]: active against Gram+ & Gram−, Virus, Parasites, Protozoan

GGHGIRRIIRKIIHIIKK-NH2 (C-terminus assumed) [PEP 188, GGHGIRRIIRKIIHIIKK]
MIC Kp [3]: 1.9 µM

GGHGVRRFPWWWPFLRR [PEP 189, GGHGVRRFPWWWPFLRR]
MIC Kp [3]: 7.2 µM

GIGKFLHSAGKFGKAFVGEIMKS [SEQ ID NO: 57]
activity against organisms [8]: active against Gram+ & Gram−, Virus, Fungi, Parasites, Protozoan, HIV

GILAWKWAWWAWRR [SEQ ID NO: 55]
activity against organisms [8]: active against Gram+ & Gram−, Fungi, Virus, HIV

GILAWKWAWWAWRRGGC [SEQ ID NO: 61]
activity against organisms [8]: active against Gram+ & Gram−, Fungi, Virus, HIV

GIRRIIRKIIHIIKK [SEQ ID NO: 53]
activity against organisms [8]: active against Gram+ & Gram−, Fungi

GIRRIIRKIIHIIKKGGC [SEQ ID NO: 59]
activity against organisms [8]: active against Gram+ & Gram−, Fungi GVR

GRLARIVVIRVAR [SEQ ID NO: 56]
activity against organisms [8]: active against Gram+ & Gram−

GRRWKIVVIRWRRGGC [SEQ ID NO: 67]
activity against organisms [8]: active against Gram+ & Gram−

GVRRFPWWWPFLRR [SEQ ID NO: 54]
activity against organisms [8]: active against Gram+ & Gram−, Fungi

ILPWKWPWWPWRRGGC [SEQ ID NO: 64]
activity against organisms [8]: active against Gram+ & Gram−, Fungi, Virus, HIV

IRRIIRKIIHIIKKGGC [SEQ ID NO: 65]
activity against organisms [8]: active against Gram+ & Gram−, Fungi

RFPWWWPFLRRGGC [SEQ ID NO: 60]
activity against organisms [8]: active against Gram+ & Gram−, Fungi

RRWKIVVIRWRRGGC [SEQ ID NO: 62]
activity against organisms [8]: active against Gram+ & Gram−

VDKGSYLPRPTPPRPIYNRN [SEQ ID NO: 58]
activity against organisms [8]: active against Gram+ & Gram−

VRRFPWWWPFLRRGGC [SEQ ID NO: 66]
activity against organisms [8]: active against Gram+ & Gram−, Fungi
